The supplement of paper PMC10307832

Legend:
Assay in all cases: relative viability (nuclei count vs DMSO), 5 days (fraction); higher = more cells survive
[1] = system: A-427; settings: first compound 4 µM
Outline: (§1)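 Nuclei were stained with Hoechst during a one-step fixation (final 0.05% Triton X-100, 1% formaldehyde, 1 ug/ml Hoechst) carried out 5 days after dosing, then counted on 4× images. The cells, lung cancer lines in 1536-well plates, had been dosed by pin tool the day after seeding with one drug alone or a fixed anchor-drug dose plus five library-drug doses (not always all listed) in √10 steps. Relative viability is the nuclei count in treated wells divided by that in vehicle wells, and each value is the median of duplicate plates.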

[2] = system: SK-MES-1
Outline: as §1

[3] = system: LOU-NH91
Outline: as §1

[4] = system: EMC-BAC-2
Outline: as §1

[5] = system: H3255
Outline: as §1

[6] = system: NCI-H1755
Outline: as §1

[7] = system: LK-2
Outline: as §1

[8] = system: HCC-366
Outline: as §1

[9] = system: NCI-H596
Outline: as §1

[10] = system: SW 900
Outline: as §1

[11] = system: NCI-H2170
Outline: as §1

[12] = system: NCI-H1975
Outline: as §1

Cc1sc2c(c1C)C(c1ccc(Cl)cc1)=N[C@@H](CC(=O)OC(C)(C)C)c1nnc(C)n1-2 [JQ1] + N=C(N)NC(=N)NCCc1ccccc1 [Phenformin] (partner 250 µM)
relative viability [1]: 0.228 | relative viability ([2]; first compound 0.04 µM): 0.672 | relative viability ([2]; first compound 0.1265 µM): 0.496 | relative viability ([2]; first compound 0.4 µM): 0.428 | relative viability ([2]; first compound 1.265 µM): 0.307 | relative viability ([2]; first compound 4 µM): 0.199 | relative viability ([3]; first compound 0.04 µM): 0.735 | relative viability ([3]; first compound 0.1265 µM): 0.555 | relative viability ([3]; first compound 0.4 µM): 0.384 | relative viability ([3]; first compound 1.265 µM): 0.328 | relative viability ([3]; first compound 4 µM): 0.326 | relative viability ([4]; first compound 0.04 µM): 0.551 | relative viability ([4]; first compound 0.1265 µM): 0.326 | relative viability ([4]; first compound 0.4 µM): 0.454 | relative viability ([4]; first compound 1.265 µM): 0.267 | relative viability ([4]; first compound 4 µM): 0.264 | relative viability ([5]; first compound 0.04 µM): 0.349 | relative viability ([5]; first compound 0.1265 µM): 0.348 | relative viability ([5]; first compound 0.4 µM): 0.35 | relative viability ([5]; first compound 1.265 µM): 0.36 | relative viability ([5]; first compound 4 µM): 0.36 | relative viability ([6]; first compound 0.04 µM): 0.687 | relative viability ([6]; first compound 0.1265 µM): 0.501 | relative viability ([6]; first compound 0.4 µM): 0.506 | relative viability ([6]; first compound 1.265 µM): 0.462 | relative viability ([6]; first compound 4 µM): 0.419 | relative viability ([7]; first compound 0.04 µM): 0.298 | relative viability ([7]; first compound 0.1265 µM): 0.379 | relative viability ([7]; first compound 0.4 µM): 0.21 | relative viability ([7]; first compound 1.265 µM): 0.101 | relative viability ([7]; first compound 4 µM): 0.147 | relative viability ([8]; first compound 0.04 µM): 0.699 | relative viability ([8]; first compound 0.4 µM): 0.614 | relative viability ([8]; first compound 1.265 µM): 0.412 | relative viability ([8]; first compound 4 µM): 0.376 | relative viability ([9]; first compound 0.04 µM): 0.702 | relative viability ([9]; first compound 0.1265 µM): 0.812 | relative viability ([9]; first compound 0.4 µM): 0.829 | relative viability ([9]; first compound 1.265 µM): 0.374 | relative viability ([9]; first compound 4 µM): 0.348 | relative viability ([10]; first compound 0.04 µM): 0.462 | relative viability ([10]; first compound 0.1265 µM): 0.519 | relative viability ([10]; first compound 0.4 µM): 0.285 | relative viability ([10]; first compound 1.265 µM): 0.187 | relative viability ([10]; first compound 4 µM): 0.139 | relative viability ([11]; first compound 0.04 µM): 0.408 | relative viability ([11]; first compound 0.1265 µM): 0.394 | relative viability ([11]; first compound 0.4 µM): 0.402 | relative viability ([11]; first compound 1.265 µM): 0.354 | relative viability ([11]; first compound 4 µM): 0.315 | relative viability ([12]; first compound 0.04 µM): 0.41 | relative viability ([12]; first compound 0.1265 µM): 0.31 | relative viability ([12]; first compound 0.4 µM): 0.381 | relative viability ([12]; first compound 1.265 µM): 0.299 | relative viability ([12]; first compound 4 µM): 0.297
